This passage reports IC50 results from US20260207602A1, “EGFR INHIBITORS” (Blueprint Medicines Corporation, priority 2022, published 2026).

Usually IC50 stands for the concentration needed to halve the response being measured.

The target in one test is T1, EGFR L858R (Homo sapiens, UniProt P00533, L858R).
T1 construct: purchased SignalChem E10-122BG
Put plainly: Biochemical EGFR inhibition assay (Caliper mobility shift), EGFR L858R. The note with it: biochemical Caliper mobility shift assay, EGFR L858R enzyme; read-out: Enz EGFR L858R IC50. The procedure, abridged: (§1)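 Recombinant mutant enzyme, 2.5 µM fluorescent peptide, ATP at 1.0 mM or Km, 1.0% DMSO, 25 °C. Stopped with EDTA once 10–20% of peptide was phosphorylated; apparent IC50 derived from electrophoretic product/substrate separation.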

A further test addresses T2, EGFR (d746-750) (Homo sapiens, UniProt P00533, DEL746-750).
T2 construct: purchased SignalChem E10-122JG
Briefly: Biochemical EGFR inhibition assay (Caliper mobility shift), EGFR (d746-750). The note with it: biochemical Caliper mobility shift assay, EGFR Exon 19-del enzyme; read-out: Enz EGFR Exon 19-del IC50. The essentials: as §1

The target in test [1] is intracellular phosphorylation of EGFR (Tyr1068) in PC-9 cells (Homo sapiens, UniProt P00533, DEL746-750). Briefly: PC-9 pEGFR AlphaLISA assay. The class given is cell-based. The note with it: 4 hours incubation, read-out: Phos EGFR PC9 IC50. The essentials: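 PC-9 cells (EGFR del746-750) in phenol-free DMEM/10% FBS, adhered overnight, then exposed to 10-point 4-fold compound dilutions for 4 h at 37 °C. Lysates assayed for pEGFR Tyr1068 by AlphaLISA SureFire Ultra; IC50 from percent pEGFR inhibition vs log concentration.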
(In general: Alpha assays give light when donor and acceptor beads are brought close together.)

T2 sequence (P00533 with tags, fused parts or gaps DEL746-750 limits assumed): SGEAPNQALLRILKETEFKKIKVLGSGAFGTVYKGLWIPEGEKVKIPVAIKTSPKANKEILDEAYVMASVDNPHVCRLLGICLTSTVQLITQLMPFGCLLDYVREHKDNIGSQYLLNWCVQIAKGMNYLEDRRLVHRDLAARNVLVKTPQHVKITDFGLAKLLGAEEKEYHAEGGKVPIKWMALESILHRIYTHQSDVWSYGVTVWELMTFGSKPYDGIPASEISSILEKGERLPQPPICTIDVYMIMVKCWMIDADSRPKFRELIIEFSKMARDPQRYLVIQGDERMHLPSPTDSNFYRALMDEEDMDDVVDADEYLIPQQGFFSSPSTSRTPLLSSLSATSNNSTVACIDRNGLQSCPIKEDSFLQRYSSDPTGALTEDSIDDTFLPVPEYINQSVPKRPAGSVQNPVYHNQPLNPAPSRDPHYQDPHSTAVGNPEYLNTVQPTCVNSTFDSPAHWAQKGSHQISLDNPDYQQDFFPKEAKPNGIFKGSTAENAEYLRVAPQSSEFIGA
T1 sequence (P00533 25-1210 L858R): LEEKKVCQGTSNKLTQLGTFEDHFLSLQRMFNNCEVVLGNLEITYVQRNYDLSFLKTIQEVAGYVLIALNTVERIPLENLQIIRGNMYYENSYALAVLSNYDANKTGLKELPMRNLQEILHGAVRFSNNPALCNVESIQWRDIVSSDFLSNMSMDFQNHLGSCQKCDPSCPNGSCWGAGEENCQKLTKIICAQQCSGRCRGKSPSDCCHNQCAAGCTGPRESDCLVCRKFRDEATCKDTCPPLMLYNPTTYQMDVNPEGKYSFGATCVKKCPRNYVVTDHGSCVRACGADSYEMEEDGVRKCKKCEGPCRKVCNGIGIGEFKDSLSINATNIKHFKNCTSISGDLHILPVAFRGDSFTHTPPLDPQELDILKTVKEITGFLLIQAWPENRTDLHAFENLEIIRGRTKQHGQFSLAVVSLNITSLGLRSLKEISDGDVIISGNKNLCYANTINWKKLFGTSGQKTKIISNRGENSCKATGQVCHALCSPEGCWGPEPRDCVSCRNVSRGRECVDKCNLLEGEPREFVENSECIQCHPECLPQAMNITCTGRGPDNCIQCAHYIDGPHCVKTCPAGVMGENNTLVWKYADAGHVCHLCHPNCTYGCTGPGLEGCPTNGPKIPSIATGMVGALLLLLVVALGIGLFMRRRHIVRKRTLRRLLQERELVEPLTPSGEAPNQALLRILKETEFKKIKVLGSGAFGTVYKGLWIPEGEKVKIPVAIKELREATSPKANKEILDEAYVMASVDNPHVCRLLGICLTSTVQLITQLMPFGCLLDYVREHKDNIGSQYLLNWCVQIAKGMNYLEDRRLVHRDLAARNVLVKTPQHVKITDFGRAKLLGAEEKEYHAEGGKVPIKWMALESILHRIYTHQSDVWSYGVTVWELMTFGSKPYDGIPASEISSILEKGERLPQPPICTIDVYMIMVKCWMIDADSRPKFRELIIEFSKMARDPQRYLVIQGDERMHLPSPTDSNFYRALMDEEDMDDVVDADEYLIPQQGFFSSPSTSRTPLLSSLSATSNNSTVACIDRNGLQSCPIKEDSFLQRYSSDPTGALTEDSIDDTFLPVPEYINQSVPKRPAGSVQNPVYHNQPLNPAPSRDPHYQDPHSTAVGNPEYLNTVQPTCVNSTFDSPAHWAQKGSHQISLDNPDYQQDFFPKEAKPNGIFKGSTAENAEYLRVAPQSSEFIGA
Chain of intracellular phosphorylation of EGFR (Tyr1068) in PC-9 cells (P00533 with tags, fused parts or gaps DEL746-750): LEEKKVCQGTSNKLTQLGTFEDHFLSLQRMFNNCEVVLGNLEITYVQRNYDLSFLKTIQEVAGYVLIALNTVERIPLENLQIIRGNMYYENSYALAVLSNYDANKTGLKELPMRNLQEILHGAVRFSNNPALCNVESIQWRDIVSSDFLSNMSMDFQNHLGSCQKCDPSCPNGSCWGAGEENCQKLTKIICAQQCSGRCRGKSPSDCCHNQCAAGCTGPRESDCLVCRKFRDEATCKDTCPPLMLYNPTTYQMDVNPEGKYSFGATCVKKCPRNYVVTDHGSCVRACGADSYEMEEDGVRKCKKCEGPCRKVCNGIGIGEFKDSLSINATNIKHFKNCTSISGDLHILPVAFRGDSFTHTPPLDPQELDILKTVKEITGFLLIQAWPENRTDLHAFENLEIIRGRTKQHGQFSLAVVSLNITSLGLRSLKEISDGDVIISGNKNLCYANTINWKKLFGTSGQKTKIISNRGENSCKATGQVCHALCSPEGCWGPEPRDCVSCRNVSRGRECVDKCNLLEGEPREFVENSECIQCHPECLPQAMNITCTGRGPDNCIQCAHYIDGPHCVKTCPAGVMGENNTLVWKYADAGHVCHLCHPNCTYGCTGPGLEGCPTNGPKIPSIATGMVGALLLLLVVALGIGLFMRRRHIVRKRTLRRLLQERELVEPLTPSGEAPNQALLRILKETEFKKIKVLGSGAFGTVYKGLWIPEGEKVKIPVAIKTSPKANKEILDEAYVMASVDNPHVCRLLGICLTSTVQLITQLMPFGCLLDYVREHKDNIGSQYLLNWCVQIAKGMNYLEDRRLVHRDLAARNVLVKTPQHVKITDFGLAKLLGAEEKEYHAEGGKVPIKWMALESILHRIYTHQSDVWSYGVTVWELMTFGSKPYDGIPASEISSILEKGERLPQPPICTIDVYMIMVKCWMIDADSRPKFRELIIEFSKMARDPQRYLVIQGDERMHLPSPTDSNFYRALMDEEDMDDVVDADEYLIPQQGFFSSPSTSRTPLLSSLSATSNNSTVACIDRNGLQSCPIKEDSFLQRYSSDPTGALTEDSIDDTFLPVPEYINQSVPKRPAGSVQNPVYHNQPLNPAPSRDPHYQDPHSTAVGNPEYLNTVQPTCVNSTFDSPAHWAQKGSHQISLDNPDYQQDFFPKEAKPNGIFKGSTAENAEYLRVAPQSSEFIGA

Take `C[C@@H]1CN(c2cc(O[C@H](C)C3COC3)c3c(Nc4ccc5ncsc5c4F)ncnc3c2)CCN1` (single isomer, unassigned) [Example 100]: the IC50 on EGFR L858R was 10.1 to 50 nM; at EGFR (d746-750) it was at most 10 nM; in test [1] it was 10.1 to 50 nM.
`Cn1cc(-c2cc(O[C@H]3CC[C@@H](N(C)C)CC3)c3c(Nc4ccc5ncsc5c4)ncnc3c2)cn1` [Example 22, N-(5-(((1s,4s)-4-(dimethylamino)cyclohexyl)oxy)-7-(1-methyl-1H-pyrazol-4-yl)quinazolin-4-yl)benzo[d]thiazol-6-amine]: the IC50 (at EGFR L858R; at EGFR (d746-750); in test [1]) was at most 10 nM throughout.
For `COc1nn(C)cc1-c1cc(O[C@H](C)C2COC2)c2c(Nc3ccc4ncsc4c3)ncnc2c1` (single isomer, unassigned) [Example 170], the IC50 (at EGFR L858R; on EGFR (d746-750); in test [1]) was at most 10 nM each time.
Turning to `Cn1cc(-c2cc(OC3COCOC3)c3c(Nc4ccc5ncsc5c4)ncnc3c2)cn1` [Example A59, N-(5-((1,3-dioxan-5-yl)oxy)-7-(1-methyl-1H-pyrazol-4-yl)quinazolin-4-yl)benzo[d]thiazol-6-amine], the IC50 at EGFR L858R is at most 10 nM; at EGFR (d746-750) it was at most 10 nM; in test [1], 10.1 to 50 nM.
Consider `CCn1cc(-c2cc(OC3CCN(C4COC4)CC3)c3c(Nc4ccc5ncsc5c4)ncnc3c2)cn1` [Example 307, N-(7-(1-ethyl-1H-pyrazol-4-yl)-5-((1-(oxetan-3-yl)piperidin-4-yl)oxy)quinazolin-4-yl)benzo[d]thiazol-6-amine], for which the IC50 (on EGFR L858R; at EGFR (d746-750); in test [1]) was at most 10 nM each time.
On to `COC[C@@H](C)Oc1cc(-n2cc(C(C)(C)O)cn2)cc2ncnc(Nc3ccc4ncsc4c3F)c12` [Example A26, (R)-2-(1-(4-((7-fluorobenzo[d]thiazol-6-yl)amino)-5-((1-methoxypropan-2-yl)oxy)quinazolin-7-yl)-1H-pyrazol-4-yl)propan-2-ol], for which the IC50 (on EGFR L858R; on EGFR (d746-750); in test [1]) was at most 10 nM in each case.
As to `CN1CC[C@H](Oc2cc(-c3cnn(C)c3)cc3ncnc(Nc4ccc5ncsc5c4F)c23)C1=O` (single isomer, unassigned) [Example 73], the IC50 is at most 10 nM on EGFR L858R, at most 10 nM at EGFR (d746-750) and 10.1 to 50 nM in test [1].
Take `CN1CCC[C@H](Oc2cc(-c3cn(C)nc3OC(F)F)cc3ncnc(Nc4ccc5ncsc5c4)c23)C1` [Example 248, (S)-N-(7-(3-(difluoromethoxy)-1-methyl-1H-pyrazol-4-yl)-5-((1-methylpiperidin-3-yl)oxy)quinazolin-4-yl)benzo[d]thiazol-6-amine]: the IC50 is 10.1 to 50 nM on EGFR L858R, at most 10 nM at EGFR (d746-750) and 10.1 to 50 nM in test [1].
For `Cn1cc(-c2cc(OC[C@@H]3CCCO3)c3c(Nc4ccc5ncsc5c4)ncnc3c2)cn1` [Example 32, (S)-N-(7-(1-methyl-1H-pyrazol-4-yl)-5-((tetrahydrofuran-2-yl)methoxy)quinazolin-4-yl)benzo[d]thiazol-6-amine], the IC50 on EGFR L858R was at most 10 nM; at EGFR (d746-750), at most 10 nM; in test [1], 10.1 to 50 nM.
For `CC(C)n1cc(-c2cc(OC3CCOCC3)c3c(Nc4ccc5ncsc5c4)ncnc3c2)cn1` [Example 191, N-(7-(1-isopropyl-1H-pyrazol-4-yl)-5-((tetrahydro-2H-pyran-4-yl)oxy)quinazolin-4-yl)benzo[d]thiazol-6-amine], the IC50 was at most 10 nM at EGFR L858R, at most 10 nM at EGFR (d746-750) and 10.1 to 50 nM in test [1].
With `C[C@@H]1CN(c2cc(O[C@H](C)C3COC3)c3c(Nc4ccc5ncsc5c4F)ncnc3c2)CCN1C` (single isomer, unassigned) [Example 102], the IC50 (on EGFR L858R; at EGFR (d746-750); in test [1]) was at most 10 nM each time.
As for `CC(C)Oc1cc(-c2cnn(C)c2)cc2ncnc(Nc3ccc4ncsc4c3)c12` [Example 405, N-(5-isopropoxy-7-(1-methyl-1H-pyrazol-4-yl)quinazolin-4-yl)benzo[d]thiazol-6-amine], the IC50 (at EGFR L858R; on EGFR (d746-750); in test [1]) was at most 10 nM each time.
Turning to `C[C@@H]1CNCCN1c1cc(O[C@H](C)C2COC2)c2c(Nc3ccc4ncsc4c3F)ncnc2c1` (single isomer, unassigned) [Example 105], the results for the IC50 (at EGFR L858R; at EGFR (d746-750); in test [1]) were 10.1 to 50 nM, at most 10 nM and 10.1 to 50 nM, respectively.
Regarding `Cn1cc(-c2cc(OCC3CCOC3)c3c(Nc4ccc5ncsc5c4)ncnc3c2)cn1` (single isomer, unassigned) [Example 41], the results for the 50% inhibitory concentration (IC50) (on EGFR L858R; at EGFR (d746-750); in test [1]) were at most 10 nM, at most 10 nM and 10.1 to 50 nM, respectively.
For `COCCOc1cc(O[C@H](C)C2COC2)c2c(Nc3ccc4ncsc4c3F)ncnc2c1` (single isomer, unassigned) [Example 85], the values for the IC50 (at EGFR L858R; at EGFR (d746-750); in test [1]) were at most 10 nM, at most 10 nM and 10.1 to 50 nM, respectively.
On to `COC[C@@H](C)Oc1cc(N2CCN(CCO)CC2)cc2ncnc(Nc3ccc4ncsc4c3)c12` [Example 196, (R)-2-(4-(4-(benzo[d]thiazol-6-ylamino)-5-((1-methoxypropan-2-yl)oxy)quinazolin-7-yl)piperazin-1-yl)ethan-1-ol], for which the IC50 on EGFR L858R is at most 10 nM; at EGFR (d746-750) it was at most 10 nM; in test [1], 10.1 to 50 nM.
On to `OC(Cn1cc(-c2cc(OC3CCOCC3)c3c(Nc4ccc5ncsc5c4)ncnc3c2)cn1)C(F)(F)F` (stereo not drawn) [Example A57, 3-(4-(4-(benzo[d]thiazol-6-ylamino)-5-((tetrahydro-2H-pyran-4-yl)oxy)quinazolin-7-yl)-1H-pyrazol-1-yl)-1,1,1-trifluoropropan-2-ol], for which the IC50 is at most 10 nM on EGFR L858R, at most 10 nM at EGFR (d746-750) and 10.1 to 50 nM in test [1].
In the case of `CN1CC[C@@H](F)[C@@H](Oc2cc(-c3cnn(C)c3)cc3ncnc(Nc4ccc5ncsc5c4)c23)C1` (single isomer, unassigned) [Example 162], the IC50 at EGFR L858R was at most 10 nM; at EGFR (d746-750), at most 10 nM; in test [1], 10.1 to 50 nM.
Take `C[C@H](CO)Oc1cc(N2CCN(C)CC2)cc2ncnc(Nc3ccc4ncsc4c3F)c12` (single isomer, unassigned) [Example 296]: the IC50 (at EGFR L858R; on EGFR (d746-750); in test [1]) was at most 10 nM throughout.
Regarding `C[C@@H](Oc1cc(N2CCN(C)[C@@H](C)C2)cc2ncnc(Nc3ccc4ncsc4c3F)c12)C1COC1` (single isomer, unassigned) [Example 99], the IC50 at EGFR L858R is 10.1 to 50 nM; on EGFR (d746-750), at most 10 nM; in test [1], 10.1 to 50 nM.
Consider `CC[C@H](Oc1cc(-c2cnn(C)c2)cc2ncnc(Nc3ccc4ncsc4c3F)c12)C1CN(C)C1` (single isomer, unassigned) [Example 390], for which the IC50 (at EGFR L858R; at EGFR (d746-750); in test [1]) was above 50.1 nM each time.
Consider `COC[C@@H](C)Oc1cc(N2CCN(C)C[C@H]2C)cc2ncnc(Nc3ccc4ncsc4c3)c12` (single isomer, unassigned) [Example 212], for which the IC50 at EGFR L858R is 10.1 to 50 nM; at EGFR (d746-750) it was 10.1 to 50 nM; in test [1], above 50.1 nM.
As for `Cn1cc(-c2cc(OC3CCCOC3)c3c(Nc4ccc5ncsc5c4)ncnc3c2)cn1` (stereo not drawn) [Example 414, N-(7-(1-methyl-1H-pyrazol-4-yl)-5-((tetrahydro-2H-pyran-3-yl)oxy)quinazolin-4-yl)benzo[d]thiazol-6-amine], the IC50 (at EGFR L858R; on EGFR (d746-750); in test [1]) was at most 10 nM throughout.
`CN1CCC2(COC2)[C@H](Oc2cc(-c3cnn(C)c3)cc3ncnc(Nc4ccc5ncsc5c4)c23)C1` (single isomer, unassigned) [Example 353]: the IC50 (on EGFR L858R; on EGFR (d746-750); in test [1]) was at most 10 nM throughout.
Take `Cn1cc(-c2cc(O[C@H]3CC[C@H](O)CC3)c3c(Nc4ccc5ncsc5c4)ncnc3c2)cn1` [Example 5, (1r,4r)-4-((4-(benzo[d]thiazol-6-ylamino)-7-(1-methyl-1H-pyrazol-4-yl)quinazolin-5-yl)oxy)cyclohexan-1-ol]: the IC50 (on EGFR L858R; at EGFR (d746-750); in test [1]) was at most 10 nM throughout.
On to `C[C@@H](Oc1cc(N2CCN(C)CC2)cc2ncnc(Nc3ccc4ncsc4c3)c12)C1COC1` (single isomer, unassigned) [Example 96], for which the IC50 is at most 10 nM at EGFR L858R, at most 10 nM at EGFR (d746-750) and 10.1 to 50 nM in test [1].
For the compound `CN1CCC2(COC2)C(Oc2cc(-c3cnn(C)c3)cc3ncnc(Nc4ccc5ncsc5c4)c23)C1` (stereo not drawn) [Example 352, N-(7-(1-methyl-1H-pyrazol-4-yl)-5-((7-methyl-2-oxa-7-azaspiro[3.5]nonan-5-yl)oxy)quinazolin-4-yl)benzo[d]thiazol-6-amine], the IC50 (at EGFR L858R; on EGFR (d746-750); in test [1]) was at most 10 nM in each case.
Consider `Cn1cc(-c2cc(O[C@@H]3CNC[C@H](F)C3)c3c(Nc4ccc5ncsc5c4)ncnc3c2)cn1` (single isomer, unassigned) [Example 334], for which the IC50 on EGFR L858R is at most 10 nM; on EGFR (d746-750), at most 10 nM; in test [1], 10.1 to 50 nM.
